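GI50 is the concentration that inhibits growth by half. TGI: concentration producing complete growth inhibition.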
Tests used:
Assay in all cases: growth of human tumour cells (NCI), 384-well format
786-0 renal = test system: 786-0 renal
A498 renal = test system: A498 renal
A549 NSCLC = test system: A549 NSCLC
ACHN renal = test system: ACHN renal
BT-549 breast = test system: BT-549 breast
CAKI-1 renal = test system: CAKI-1 renal
CCRF-CEM leukemia = test system: CCRF-CEM leukemia
COLO 205 colon = test system: COLO 205 colon
DU-145 prostate = test system: DU-145 prostate
EKVX NSCLC = test system: EKVX NSCLC
HCC-2998 colon = test system: HCC-2998 colon
HCT-116 colon = test system: HCT-116 colon
HCT-15 colon = test system: HCT-15 colon
HL-60(TB) leukemia = test system: HL-60(TB) leukemia
HOP-62 NSCLC = test system: HOP-62 NSCLC
HOP-92 NSCLC = test system: HOP-92 NSCLC
HS 578T breast = test system: HS 578T breast
HT29 colon = test system: HT29 colon
IGROV1 ovarian = test system: IGROV1 ovarian
K-562 leukemia = test system: K-562 leukemia
KM12 colon = test system: KM12 colon
LOX IMVI melanoma = test system: LOX IMVI melanoma
M14 melanoma = test system: M14 melanoma
MALME-3M melanoma = test system: MALME-3M melanoma
MCF7 breast = test system: MCF7 breast
MDA-MB-435 melanoma = test system: MDA-MB-435 melanoma
MDA-MB-468 breast = test system: MDA-MB-468 breast
MOLT-4 leukemia = test system: MOLT-4 leukemia
NCI-H226 lung = test system: NCI-H226 lung
NCI-H23 lung = test system: NCI-H23 lung
NCI-H322M lung = test system: NCI-H322M lung
NCI-H460 NSCLC = test system: NCI-H460 NSCLC
NCI-H522 lung = test system: NCI-H522 lung
NCI/ADR-RES ovarian = test system: NCI/ADR-RES ovarian
OVCAR-3 ovarian = test system: OVCAR-3 ovarian
OVCAR-4 ovarian = test system: OVCAR-4 ovarian
OVCAR-8 ovarian = test system: OVCAR-8 ovarian
PC-3 prostate = test system: PC-3 prostate
RPMI-8226 leukemia = test system: RPMI-8226 leukemia
RXF 393 renal = test system: RXF 393 renal
SF-268 CNS = test system: SF-268 CNS
SF-295 CNS = test system: SF-295 CNS
SF-539 CNS = test system: SF-539 CNS
SK-MEL-2 melanoma = test system: SK-MEL-2 melanoma
SK-MEL-28 melanoma = test system: SK-MEL-28 melanoma
SK-MEL-5 melanoma = test system: SK-MEL-5 melanoma
SK-OV-3 ovarian = test system: SK-OV-3 ovarian
SN12C renal = test system: SN12C renal
SNB-19 CNS = test system: SNB-19 CNS
SNB-75 CNS = test system: SNB-75 CNS
SW-620 colon = test system: SW-620 colon
TK-10 renal = test system: TK-10 renal
U251 glioblastoma = test system: U251 glioblastoma
UACC-257 melanoma = test system: UACC-257 melanoma
UACC-62 melanoma = test system: UACC-62 melanoma

`O=C(Nc1cccc(Br)c1)Oc1cccc2cccnc12` was tested, and the GI50 ([…]-0 renal) was 16.3 µM, the TGI (786-0 renal) was 33.9 µM and the GI50 (A498 renal) was 12.9 µM. The TGI (A498 renal) was 26.3 µM, the GI50 (A549 NSCLC) was 13.8 µM and the TGI (A549 NSCLC) was 32.8 µM. For the same compound, the GI50 (ACHN renal) was 6.26 µM, the TGI (ACHN renal) was 27.1 µM and the GI50 (BT-549 breast) was 6.95 µM. The TGI (BT-549 breast) was 22 µM, the GI50 (CAKI-1 renal) was 2.35 µM and the TGI (CAKI-1 renal) was 4.98 µM. The GI50 (CCRF-CEM leukemia) was 1.94 µM, the TGI (CCRF-CEM leukemia) was 3.43 µM and the GI50 (COLO 205 colon) was 2.61 µM. For the same compound, the TGI (COLO 205 colon) was 4.87 µM, the GI50 (DU-145 prostate) was 8.98 µM and the TGI (DU-145 prostate) was 36.7 µM. The GI50 (EKVX NSCLC) was 2.39 µM, the TGI (EKVX NSCLC) was 4.96 µM and the GI50 (HCC-2998 colon) was 16.2 µM. For the same compound, the TGI (HCC-2998 colon) was 30.1 µM, the GI50 (HCT-116 colon) was 2.4 µM and the TGI (HCT-116 colon) was 4.37 µM. The GI50 (HCT-15 colon) was 3.4 µM, the TGI (HCT-15 colon) was 9.07 µM and the GI50 (HL-60(TB) leukemia) was 1.73 µM. It also gave a TGI (HL-60(TB) leukemia) of 3.11 µM, a GI50 (HOP-62 NSCLC) of 7.61 µM and a TGI (HOP-62 NSCLC) of 18.8 µM. For the same compound, the GI50 (HOP-92 NSCLC) was 4.02 µM, the TGI (HOP-92 NSCLC) was 10.5 µM and the GI50 (HS 578T breast) was 16.7 µM. The TGI (HS 578T breast) was 39.8 µM, the GI50 (HT29 colon) was 8.98 µM and the TGI (HT29 colon) was 21.2 µM. The GI50 (IGROV1 ovarian) was 2.23 µM, the TGI (IGROV1 ovarian) was 4.46 µM and the GI50 (K-562 leukemia) was 23.5 µM. For the same compound, the TGI (K-562 leukemia) was 50.3 µM, the GI50 (KM12 colon) was 5.99 µM and the TGI (KM12 colon) was 18.1 µM. It also gave a GI50 (LOX IMVI melanoma) of 2.95 µM, a TGI (LOX IMVI melanoma) of 10.8 µM and a GI50 (M14 melanoma) of 2.78 µM. It also gave a TGI (M14 melanoma) of 6.06 µM, a GI50 (MALME-3M melanoma) of 4.16 µM and a TGI (MALME-3M melanoma) of 13.1 µM. For the same compound, the GI50 (MCF7 breast) was 2.23 µM, the TGI (MCF7 breast) was 4.47 µM and the GI50 (MDA-MB-435 melanoma) was 12.6 µM. The TGI (MDA-MB-435 melanoma) was 30.4 µM, the GI50 (MDA-MB-468 breast) was 2.82 µM and the TGI (MDA-MB-468 breast) was 4.48 µM. For the same compound, the GI50 (MOLT-4 leukemia) was 1.99 µM, the TGI (MOLT-4 leukemia) was 3.47 µM and the GI50 (NCI-H226 lung) was 1.74 µM. It also gave a TGI (NCI-H226 lung) of 3.42 µM, a GI50 (NCI-H23 lung) of 2.01 µM and a TGI (NCI-H23 lung) of 3.73 µM. The GI50 (NCI-H322M lung) was 17.5 µM, the TGI (NCI-H322M lung) was 43 µM and the GI50 (NCI-H460 NSCLC) was 2.76 µM. For the same compound, the TGI (NCI-H460 NSCLC) was 6.44 µM, the GI50 (NCI-H522 lung) was 2.18 µM and the TGI (NCI-H522 lung) was 4.32 µM. For the same compound, the GI50 (NCI/ADR-RES ovarian) was 2.43 µM, the TGI (NCI/ADR-RES ovarian) was 4.56 µM and the GI50 (OVCAR-3 ovarian) was 2.12 µM. For the same compound, the TGI (OVCAR-3 ovarian) was 3.92 µM, the GI50 (OVCAR-4 ovarian) was 4.82 µM and the TGI (OVCAR-4 ovarian) was 14.9 µM. The GI50 (OVCAR-8 ovarian) was 2.56 µM, the TGI (OVCAR-8 ovarian) was 5.3 µM and the GI50 (PC-3 prostate) was 2.79 µM. It also gave a TGI (PC-3 prostate) of 5.48 µM, a GI50 (RPMI-8226 leukemia) of 2.26 µM and a TGI (RPMI-8226 leukemia) of 3.75 µM. It also gave a GI50 (RXF 393 renal) of 3.5 µM, a TGI (RXF 393 renal) of 7.85 µM and a GI50 (SF-268 CNS) of 3.69 µM. It also gave a TGI (SF-268 CNS) of 9.11 µM, a GI50 (SF-295 CNS) of 7.95 µM and a TGI (SF-295 CNS) of 23.6 µM. For the same compound, the GI50 (SF-539 CNS) was 5.79 µM, the TGI (SF-539 CNS) was 17.1 µM and the GI50 (SK-MEL-2 melanoma) was 2.8 µM. The TGI (SK-MEL-2 melanoma) was 5.41 µM, the GI50 (SK-MEL-28 melanoma) was 4.56 µM and the TGI (SK-MEL-28 melanoma) was 15.1 µM. The GI50 (SK-MEL-5 melanoma) was 5.81 µM, the TGI (SK-MEL-5 melanoma) was 17.9 µM and the GI50 (SK-OV-3 ovarian) was 17.9 µM. For the same compound, the TGI (SK-OV-3 ovarian) was 34.3 µM, the GI50 (SN12C renal) was 4.46 µM and the TGI (SN12C renal) was 15.4 µM. It also gave a GI50 (SNB-19 CNS) of 9.79 µM, a TGI (SNB-19 CNS) of 38.3 µM and a GI50 (SNB-75 CNS) of 4.08 µM. For the same compound, the TGI (SNB-75 CNS) was 12.9 µM, the GI50 (SW-620 colon) was 6.19 µM and the TGI (SW-620 colon) was 36.7 µM. For the same compound, the GI50 (TK-10 renal) was 6.51 µM, the TGI (TK-10 renal) was 33.5 µM and the GI50 (U251 glioblastoma) was 5.89 µM. For the same compound, the TGI (U251 glioblastoma) was 17.4 µM, the GI50 (UACC-257 melanoma) was 2.28 µM and the TGI (UACC-257 melanoma) was 4.16 µM. It also gave a GI50 (UACC-62 melanoma) of 3.74 µM and a TGI (UACC-62 melanoma) of 9.42 µM.

Source: PubChem BioAssay (NCI)
